One assay deals with cyclins A, D1, and E1. The assay is described as follows: qRT-PCR of tumor tissues. The assay is classed as in vivo, mouse (Balb/C-nu/nu). The procedure: (§1) Total RNA was extracted from the cultured cells using TRIzol reagent (Invitrogen, Carlsbad, CA,USA) according to the manufacturer's instructions. qRT-PCR was used to confirm the expression levels of mRNAs. Reverse transcription and qPCR were performed according to the protocol of Reverse Transcriptase System™ and SYBR® premix Ex Taq™ (Perfect Real Time) (TaKaRa, Dalian, P.R. China) on the ABI 7300 Real Time PCR System (Applied Biosystems, Foster City, CA, USA) supplied with analytical software. β-actin mRNA levels were used for normalization. Each sample was determined in triplicate. The results represent means ± SE from three experiment runs.
On the technique in general: Quantitative PCR measures a nucleic acid by following its amplification.

The subject of assay [1] is HeLa cells. The assay is described as follows: Clonogenic assay, HeLa. The assay is classed as cell-based. Particulars: 16 through 160 µM, 8 days, p>0.1. The procedure: (§2) Cells were seeded in DMEM at 1×10^3 cells/well density in 12-well plates and allowed to attach to the substrate overnight. Thereafter, cells were treated with 0 µM, 16 µM, 32 µM, 80 µM, and 160 µM peptide in DMEM, and the medium was changed every three days. The plates were observed daily for colony formation. After 8 (for HeLa cells) or 14 (for SiHa and CaSki cells) days of treatment, the cultures were washed three times with PBS and stained with crystal violet in ethanol for 15 min. The colonies were then counted and photographed with the Alphalmager® EP image acquisition system (Alpha Innotech, Santa Clara, CA, USA).

Assay [2] deals with NIH/3T3 embryonic fibroblast cells. Nature of the assay: MTT cell viability assay, NIH 3T3. The assay is classed as cell-based, mouse. Conditions: NIH 3T3, HPV-negative; data not shown. An excerpt:
(§3) HPV16-positive SiHa and CaSki cervical carcinoma cells were supplied by China Center for Type Culture Collection (CCTCC). The following cell lines used in this project were from our laboratory: HPV18-positive HeLa cervical carcinoma cells, CNE nasopharyngeal carcinoma cells, HaCat human keratinocyte cells, COS7 (African green monkey SV40-transformed kidney fibroblast cell line), 293T (human kidney epithelial cells), and NIH/3T3 mouse embryonic fibroblast cells. All cells were maintained in a humidified atmosphere of 5% CO2, Dulbecco's modified Eagle's medium (DMEM, pH 7.2), supplemented with 10% fetal calf serum (FCS).
(§4) Cell viability was determined with an MTT assay. Briefly, the cells were seeded into 96-well plates at a density of 4–5×10^3 cells/well. The cells were allowed to recover for 24 h before the medium was replaced with DMEM supplemented with peptides at different concentrations. The solvent of the peptides was set as the control. The peptide-supplemented medium was replaced daily and the respective concentrations were maintained. The cells were subjected to an MTT cell proliferation assay at different time points. The plates were incubated at 37°C for 3 h with the addition of 20 µl/well MTT (5 mg/ml). Untransformed MTT in the solution was removed by aspiration. […] The optical density of the formazan solutions was measured by microplate reader at 540 nm.

Assay [3] concerns CNE nasopharyngeal carcinoma cells. The assay is described as follows: MTT cell viability assay, CNE. Particulars: HPV-negative, data not shown. The assay is classed as cell-based.
Excerpt: as §3, §4
For orientation: Formazan colour is commonly taken as a measure of viable cells.

The test system of assay [4] is HeLa cells. Nature of the assay: MTT cell viability assay, HeLa. The assay is classed as cell-based. Conditions: HPV18-positive, A540. The procedure: Cell viability was determined with an MTT assay. Briefly, the cells were seeded into 96-well plates at a density of 4–5×10^3 cells/well. The cells were allowed to recover for 24 h before the medium was replaced with DMEM supplemented with peptides at different concentrations. The solvent of the peptides was set as the control. The peptide-supplemented medium was replaced daily and the respective concentrations were maintained. The cells were subjected to an MTT cell proliferation assay at different time points. The plates were incubated at 37°C for 3 h with the addition of 20 µl/well MTT (5 mg/ml). Untransformed MTT in the solution was removed by aspiration. The formazan product was dissolved in DMSO, and plates were shaken vigorously at room temperature for 10–15 min to ensure complete solubilization. The optical density of the formazan solutions was measured by microplate reader at 540 nm.

The subject of the next assay is HPV16E7/pRb interaction. Nature of the assay: His-pull down of pRb by His-HPV16E7. The assay is classed as binding. Particulars: 293T cell lysate (300 µg total proteins), 10 µl 8 mmol/L Pep-7, overnight 4°C. The procedure:
For pull-down analysis, the purified His-HPV E7 protein (200 µg/ml×50 µl) was preincubated with 100 µl His-band Resin (Amersham Biosciences, Little Chalfont, UK) for 4 h at 4°C. The beads were then washed four times with lysis buffer and divided into two equal portions. […] The mixtures were incubated overnight at 4°C under continuous agitation. Beads were subsequently washed four times with a lysis buffer. Bound proteins were eluted by boiling in Laemmli sample buffer and analyzed by Western blot.

The test system of a further assay is SiHa cells. Nature of the assay: qRT-PCR, SiHa. Particulars: 80 µM. The assay is classed as cell-based. The procedure: as §1
The subject of another assay is SiHa tumor xenografts. Nature of the assay: Subcutaneous tumor model in nude mice. The assay is classed as in vivo, mouse (Balb/C-nu/nu). Conditions: 400 and 800 µg/mouse i.v., 16 days, p<0.01. On the procedure:
A subcutaneous tumor model of nude mice was constructed. In brief, six-week-old female nude mice (18±2 g) were subcutaneously inoculated with 1.5×10^7 SiHa cells. When the tumor size reached about 100 mm^2, the mice were randomly divided into four groups with 5 mice each, namely, control group, low-dose group, middle-dose group, and high-dose group. […] The mice were raised for another 3 weeks. Tumor sizes were measured with a caliper every three days and tumor volume was calculated using “volume = length×width^2/2.” At the end of the experiment, all mice were sacrificed and the weights of the detached tumors were measured. Tumor growth inhibition ratio was represented as the tumor weight relative to the control, calculated using the formula, “Relative tumor weight (% of control) = average tumor weight of treatment group/average tumor weight of control group×100%.”

The subject of assay [5] is pRb. Nature of the assay: pRb phosphorylation Western blot. Conditions: SiHa, 80 µM, 24 h. The assay is classed as cell-based. A general note: A western blot detects proteins with antibodies after separation by electrophoresis.
For assay [6], the system named is CaSki cells. The assay is described as follows: qRT-PCR, CaSki. Particulars: 80 µM. The assay is classed as cell-based. On the procedure:
as §1

Assay [7] relates to pRb. Nature of the assay: pRb half-life measurement (cycloheximide, Western blot). The assay is classed as cell-based. Particulars: SiHa, 80 µM Pep-7 24 h, then 50 µg/ml cycloheximide 0 to 12 h; three experiments. The procedure:
Measurements of pRb half-life were carried out.
The cells were then treated with 50 µg/ml cycloheximide for 0 to 12 h. The cell lysates collected at different time points were subjected to Western blotting assay as above. Band intensity was used to determine the proteins half-life.

Assay [8] has as its system CaSki cells. The assay is described as follows: Clonogenic assay, CaSki. The assay is classed as cell-based. Conditions: 14 days. On the procedure: as §2

Regarding “SACPKGLDWCGG (C&C bridged by disulfide bonds) (disulfide) [Pep-7]”, the “cyclins A, D1, and E1 RNA levels in tumor tissue” value in the assay with cyclins A, D1, and E1 is given as “reduced”. Besides, the colony formation entry with HeLa cells [1] was “not influenced”; in the assay on CaSki cells [8] (16-160 µM) it was “inhibited”. Further, the “cell proliferation (MTT)” value in assay [2] was “negligible effect”; in assay [3], “negligible effect”; in the assay on HeLa cells [4], “could not repress the proliferation of HeLa cells”. The “pull-down of pRb by His-HPV16E7” value in the assay on HPV16E7/pRb interaction was “could not pull down pRb from 293T cell lysates with Pep-7 present”. Also, the “cyclins A, D1 and E1 RNA expression” value in the assay on SiHa cells and in the assay on CaSki cells [6] was “significantly reduced” each time. In addition, the “pRb and HPV16E7 RNA levels” value in the assay on SiHa cells and with CaSki cells [6] was “not affected” each time. For the same sequence, the “anti-tumor efficacy” value in the assay on SiHa tumor xenografts was “significant anti-tumor efficacy”. The “phosphorylation of pRb” value with pRb [5] is listed as “not affected significantly”. In addition, the pRb half-life result in the assay with pRb [7] is “significantly expanded”. The “concentration up to which colony number difference vs control became significant (p<0.02)” value in the assay with CaSki cells [8] (vs 0 µM group, three independent experiments) came out at 32 µM.

(Values after paper PMC3057995, “Potent Anti-Tumor Effect Generated by a Novel Human Papillomavirus (HPV) Antagonist Peptide Reactivating the pRb/E2F Pathway” (PLoS ONE, 2011).)
